# Laboratory results taken from patent US20230149393A1, “INHIBITORS OF TRPC6 FOR TREATING RESPIRATORY CONDITIONS” (Boehringer Ingelheim International GmbH, priority 2020, published 2023).
# Key:
# [1] = Phase 1 study, healthy adults; cited from earlier work
# [2] = test system: LPS-induced vascular leakage; test: Reduction of LPS-induced vascular leakage in a mouse model (BALF protein); conditions: FIGS. 1A, 1B and 1C; LPS aerosol mouse model
# [3] = test system: virus Influenza A (strain: PR8/34/H1N1); test: Reduction of H1N1-induced vascular leakage in a mouse model (BALF Evans blue); format: in vivo, Mice; conditions: 3 mg/kg p.o., 2 h after inoculation and once daily day 1 to day 4; day 6 after inoculation
# Method: Mice were inoculated intranasally with 200 PFU (Plaque Formation Unit) of virus Influenza A (strain: PR8/34/H1N1). […] was given at 3 mg/kg p.o. 2 h after inoculation and once daily from day 1 to day 4. Evans blue was injected intravenously on day 6, 30 min prior to the euthanasia. […] The supernatant was collected for the measurement of Evans blue by spectrophotometry at the absorbance of 620 nm
# At day 6 after inoculation, H1N1 induced lung vascular leakage characterized by an increase in Evans blue extravasation from the blood to the BALF.
# [4] = test system: PASMC; conditions: cited from earlier work
# [5] = test system: TRPC6; conditions: lung tissue of IPAH patients; cited from earlier work
compound,measurement,setting,value
COc1cc(C(=O)N2CCC(c3ccc(N)nn3)CC2)ncc1Oc1ccc(F)cc1 [BI 764198],tolerability,[1],well tolerated
"COc1cc(C(=O)N2CCC(c3ccc(N)nn3)CC2)ncc1Oc1ccc(F)cc1 [Compound 17, [4-(6-Amino-pyridazin-3-yl)-piperidin-1-yl]-[5-(4-fluoro-phenoxy)-4-methoxy-pyridin-2-yl]-methanone]",pulmonary vascular leakage,[2],significantly reduces pulmonary vascular leakage
same,reduction of BALF Evans blue,[3],24%
COc1ccccc1Oc1c(NS(=O)(=O)c2ccc(C(C)(C)C)cc2)nc(-c2ncccn2)nc1OCCO [bosentan],proliferation of PASMC,[4],decreases proliferation of PASMC
same,expression of TRPC6,[5],decreases expression of TRPC6
